Data taken from article PMC5236087, “A Generic Multi-Compartmental CNS Distribution Model Structure for 9 Drugs Allows Prediction of Human Brain Target Site Concentrations” (Pharmaceutical Research, 2016).
Like-named read-outs stand apart in the source and are kept apart here. Marks after values point to notes of the source that are not given here.

Assays:
[1] = design: method as in DrugBank (http://www.drugbank.ca/); PSA: unit not given beside the values; conditions: ref DrugBank (http://www.drugbank.ca/), cited from earlier work
[2] = Fraction unbound in plasma (rat data); type: in vitro ADME; conditions: rat pooled plasma, ultrafiltration; read-out: fP (%), free fraction in plasma
Protocol: To determine the free fraction of paliperidone and risperidone in plasma samples, Centrifree Ultrafiltration Devices from Merck Millipore (Amsterdam, The Netherlands) were used to separate the free from the protein bound risperidone and paliperidone in pooled plasma samples. Both the ultrafiltrate and the original pooled plasma sample (without ultrafiltration step) were measured. The free fraction was calculated according to the following Eq. 1:1 Freefraction=Ultrafiltrateconcentration/Pooledplasmaconcentration

[3] = Multi-compartmental brain PK model fitted to rat plasma and microdialysis (brainECF, CSF) data; type: in vivo; conditions: parameter estimate (RSE, %); for clearance: male, Wistar, plasma, intravenous infusion, read-out: CLPL, clearance from the central compartment
Protocol: An overview of experimental data for nine compounds with different physicochemical characteristics used for model development is provided in Table I. The physicochemical characteristics of the nine compounds are provided in Table SI.
Animal study protocols were approved by the Animal Ethics Committee of Leiden University and all animal experiments were performed in accordance with the Dutch Law of Animal Experimentation (for approval numbers see Table SII). […] Between surgery and experiments, the animals were kept individually in Makrolon type three cages for 7 days to recover from surgical procedures.
Rats were anesthetized (5% isoflurane for induction, 1–2% as maintenance), and subsequently received cannulas in the femoral artery for serial blood sampling, and in the femoral vein for drug administration, respectively. Subsequently, microdialysis guides were inserted into different brain locations. The animals were allowed to recover for 1 week before the experiments were performed. One day before the experiment, the microdialysis dummies were replaced by microdialysis probes. For details on guides, probes and locations see Table SII.
Experiments generally started at 9:00 a.m. to minimize the influence of circadian rhythms. Microdialysis probes were continuously flushed with microdialysis perfusion fluid (PF) until equilibration before the start of drug administration. Drugs were administered at t = 0 h by intravenous infusion through the cannula implanted in the femoral vein. […] The general procedure of microdialysis is depicted in Fig. 1.
Separate models describing plasma and brain concentration-time profiles for all nine compounds were developed whereby plasma- and brain-related parameters were estimated simultaneously. A naïve pooling approach was used ([37]), i.e. inter-individual variability in each compound’s data was not quantified, because of the highly standardized experimental settings combined with the homogeneous nature of the animals within each study.
The structural model that was used as a starting point was based on our previously developed models ([23]–[25]).
First, a combined drug dispersion parameter was estimated to capture the CSF and ECF flow and turbulence flow of the drug molecules ([38],[39]).
Second, drug transfer across the BCSFB was excluded.
We evaluated for each drug the validity of the changes to the basic model with regard to a single or two different flow rates for drug dispersion and drug transport at the BCSFB.

P-gp = conditions: rat; for Impact of active transport on QPL_ECF (covariate effect of inhibitor): with GF120918 or tariquidar, estimate (RSE, %)
[4] = cited from earlier work; for fP (%), free fraction in plasma: rat data; for plasma protein binding (% bound): used to calculate free fraction in plasma
MRPs, OATs and OATPs = assay: Effect of co-administered probenecid on drug exchange at the BBB and BCSFB; type: in vivo; conditions: rat
[5] = design: method as in PMID 4150300; conditions: human; cited from earlier work
[6] = with probenecid, estimate (RSE, %)

| Structure (SMILES) | log D (pH 7.4) [1] | No. of H acceptors [1] | No. of H donors [1] | PSA [1] | pKa (Base) [1] | clearance [3] | QDIFF, drug dispersion rate in brain and CSF [3] | VPL, distribution volume of the central compartment [3] | increase of QPL_ECF in the presence of P-gp inhibitors (P-gp) | Impact of active transport on QPL_ECF (covariate effect of inhibitor) (P-gp) | VPER1, distribution volume of the peripheral compartment 1 [3] | further results |
| --- | --- | --- | --- | --- | --- | --- | --- | --- | --- | --- | --- | --- |
| Cc1nc2n(c(=O)c1CCN1CCC(c3noc4cc(F)ccc34)CC1)CCCC2O (stereo not drawn) [Paliperidone] | 2.1 | 5 | 1 | 82 | 8.8 | 192 mL/min | 0.0248 (10.7) mL/min | 28400 (8.00) mL | 43.4% | 0.434 (11.4)^b |  | log P [1]: 1.8; fraction unbound [2]: 0.08 |
| CCN1CCC[C@H]1CNC(=O)c1c(OC)ccc(Br)c1OC [Remoxipride] | 0.7 | 4 | 1 | 51 | 8.4 |  |  |  |  |  |  | log P [1]: 2.1; pKa (Acid) [1]: 13.1; fP (%), free fraction in plasma ([4]; ref Widman, 1993): 74%; plasma protein binding (% bound) [4]: 26% |
| CN(Cc1cnc2nc(N)nc(N)c2n1)c1ccc(C(=O)N[C@@H](CCC(=O)O)C(=O)O)cc1 [Methotrexate] | -2.5 | 12 | 5 | 211 | 2.8 | 8.12 mL/min | 0.0598 (9.30) mL/min | 51.2 (20.3) mL |  |  | 210 (7.20) mL | pKa (Acid) [1]: 3.4; increase of QPL_ECF in the presence of the inhibitor of MRPs, OATs and OATPs (MRPs, OATs and OATPs): 409%; Impact of active transport on QLV_PL (covariate effect of inhibitor) (MRPs, OATs and OATPs; [6]): 0.410 (16.0)^a; Impact of active transport on QPL_ECF (covariate effect of inhibitor) (MRPs, OATs and OATPs; [6]): 4.09 (3.7)^a; fP (%), free fraction in plasma ([4]; ref Westerhout, 2014): 45%; VPER2, distribution volume of the peripheral compartment 2 [3]: 114 (6.60) mL; QDIFF, drug dispersion rate in brain and CSF ([3]; listed as methotrexate): 0.0598 mL/min |
| CN1CC[C@]23c4c5ccc(O)c4O[C@H]2[C@@H](O)C=C[C@H]3[C@H]1C5 [Morphine] |  | 4 | 2 |  |  |  |  |  |  |  |  |  |
| C=C[C@H]1C[N@@]2CC[C@H]1C[C@@H]2[C@@H](O)c1ccnc2ccc(OC)cc12 [Quinidine] |  | 4 | 1 | 46 |  |  | 0.0237 (2.40) mL/min |  | 443% | 4.43 (2.80)^b |  | fP (%), free fraction in plasma ([4]; ref Westerhout, 2013): 14% |
| O=C1NC(=O)C(c2ccccc2)(c2ccccc2)N1 [Phenytoin] |  | 2 | 2 | 58 |  | 44.7 mL/min | 0.0133 (13.0) mL/min | 2890 (7.90) mL | 35.5% | 0.355 (25.1)^b | 5320 (7.80) mL | plasma protein binding (% bound) [4]: 91%; QDIFF, drug dispersion rate in brain and CSF ([3]; listed as phenytoin): 0.0133 mL/min |
| CC(=O)Nc1ccc(O)cc1 [Acetaminophen] | 0.5 | 2 | 2 | 49 | -4.4 |  | 0.0556 (10.3) mL/min | 65.7 (25.4) mL |  |  | 219 (8.90) mL | fp, free fraction in plasma [5]: 85%; fP (%), free fraction in plasma ([4]; ref Westerhout, 2011): 81%; fraction; percentage of the drug which is reabsorbed by enterohepatic circulation [3]: 93.3(1.20) % |
| CC(C)NCC(O)COc1ccc(CC(N)=O)cc1 (stereo not drawn) [Atenolol] |  | 4 | 3 |  |  |  |  |  |  |  |  |  |
| Cc1nc2n(c(=O)c1CCN1CCC(c3noc4cc(F)ccc34)CC1)CCCC2 [Risperidone] |  | 4 | 0 | 62 |  | 465 mL/min |  |  |  |  |  | fraction unbound [2]: 0.07 |
